From PMC12620000, “Exploring the feasibility of protein phosphatase 1–docking motif-mimetic cell-penetrating peptides for modulating prostate carcinogenesis” (JNCI Cancer Spectrum, 2025)
Like-named read-outs stand apart in the source and are kept apart here. Where no end group is shown, it is not given here.

What was measured:
LNCaP cells = assay type: cell-based; conditions: 24 h
Description: (§1) One mM peptide stocks were prepared as for fluorescent versions. Cells were grown to 60%-70% confluence in 96-well plates and treated with 1-20 μM peptides in RPMI-1640 (phenol red-free). After 24 or 48 hours at 37 °C, 5% CO2, PrestoBlue (1/10 dilution) was added for 30 minutes. Fluorescence (λAbs 560 nm/λEm 600 nm) was measured using an Infinite 200 PRO reader (Tecan). Each condition had 3-5 replicates, repeated in 3 independent experiments.
(§2) Figure 3. Synergistic reduction of prostate cancer cell viability by combined AR-BS peptides. […] B) Cells were treated with combinations of AR-BS peptides (5 or 10 μM of each peptide) for 24 hours to assess potential synergistic effects. Cell viability was evaluated using the PrestoBlue Cell Viability Reagent according to the manufacturer’s instructions. Percentage cell viability was calculated as the ratio between treatment and control conditions (cells without treatment). Results are expressed as mean (SD) percentage from 3 independent experiments with 5 replicates per condition. Statistical comparisons were performed using the Mann–Whitney U test. *P < .05. Abbreviations: AR-BS = androgen receptor–binding site; mitP = mitoparan.
(§3) Percentage cell viability was calculated from the ratio between treatment condition and control condition (cells with no treatment). Results are expressed as mean ± SD from three independent experiments with five replicates per condition.

PC3 cells = assay type: cell-based; conditions: 24 h
Description: as §1, §2, §3

Substance: GSCKVFFKRAAKGKQK-NH2 [AR-BS1]
- Cell viability, Mean (LNCaP cells; 5 μM): 97%
- Cell viability, Mean (LNCaP cells; 10 μM): 96%
- Cell viability, Mean (LNCaP cells; 20 μM): 94%
- Cell viability, Mean (PC3 cells; 5 μM): 89%
- Cell viability, Mean (PC3 cells; 10 μM): 89%
- Cell viability, Mean (PC3 cells; 20 μM): 81%

Substance: KVKPIYFHTGRKKRRQRRRPPQ-NH2 [AR-BS3]
- Cell viability, Mean (LNCaP cells; 5 μM): 91%
- Cell viability, Mean (LNCaP cells; 10 μM): 94%
- Cell viability, Mean (LNCaP cells; 20 μM): 99%
- Cell viability, Mean (PC3 cells; 5 μM): 79%
- Cell viability, Mean (PC3 cells; 10 μM): 88%
- Cell viability, Mean (PC3 cells; 20 μM): 84%

Substance: RQLVHVVKWAKKL-NH2 [AR-BS2]
- Cell viability, Mean (LNCaP cells; 5 μM): 95%
- Cell viability, Mean (LNCaP cells; 10 μM): 96%
- Cell viability, Mean (LNCaP cells; 20 μM): 83%
- Cell viability, Mean (PC3 cells; 5 μM): 93%
- Cell viability, Mean (PC3 cells; 10 μM): 87%
- Cell viability, Mean (PC3 cells; 20 μM): 81%
